Source: PubChem BioAssay AID246 (DTP/NCI, 2004)
Values joined by “and” are separate entries in the source; they are usually repeats but may differ in a detail not shown here. Equal entries are not always repeated. Inconclusive results and toxic doses are left out.

Test system: BDF1 mice, P1081 chloroleukemia ip, survival T/C
Assay: NCI In Vivo Anticancer Drug Screen. Data for tumor model P1081 Chloroleukemia (intraperitoneal) in B6D2F1 (BDF1) mice
Settings: endpoint: mean survival time, higher = longer survival
Experimental: The antitumor activity of compounds was measured in mice bearing transplantable tumors. Survival or tumor size were measured and the results are expressed as the measurement made in the treated group (T) divided by the measurement made in the vehicle treated control group (C). The tumor model used in this assay is P1081 Chloroleukemia (intraperitoneal) in B6D2F1 (BDF1) mice

[1] = dose: 62.5 mg/kg/injection, schedule: Q01DX Z (ip), vehicle: carboxymethylcellulose (CMC)
[2] = dose: 125.0 mg/kg/injection, schedule: Q01DX Z (ip), vehicle: carboxymethylcellulose (CMC)
[3] = dose: 250.0 mg/kg/injection, schedule: Q01DX Z (ip), vehicle: carboxymethylcellulose (CMC)
[4] = dose: 500.0 mg/kg/injection, schedule: Q01DX Z (ip), vehicle: carboxymethylcellulose (CMC)
[5] = dose: 1.25 mg/kg/injection, schedule: Q01DX010 (ip), vehicle: saline
[6] = dose: 5.0 mg/kg/injection, schedule: Q01DX010 (ip), vehicle: saline
[7] = dose: 10.0 mg/kg/injection, schedule: Q01DX010 (ip), vehicle: saline

**Q.** For `Cc1n[nH]c(=O)[nH]c1=O`, which T/C (dose: 200.0 mg/kg/injection, schedule: Q01DX Z (ip), vehicle: other) is on record?
**A.** 98 % of control

**Q.** And the T/C (dose: 400.0 mg/kg/injection, schedule: Q01DX Z (ip), vehicle: other)?
**A.** 105 % of control

**Q.** What about the T/C (dose: 800.0 mg/kg/injection, schedule: Q01DX Z (ip), vehicle: other) of the same compound?
**A.** 106 % of control and 96 % of control

**Q.** Which results are given for `OCC1OC(n2cnc3c(Cl)ncnc32)C(O)C1O` (stereo unspecified)?
**A.** T/C (dose: 2.5 mg/kg/injection, schedule: Q01DX Z (ip), vehicle: carboxymethylcellulose (CMC)): 103 % of control; T/C (dose: 62.5 mg/kg/injection, schedule: Q01DX010 (ip), vehicle: saline): 95 % of control; T/C [1]: 95 % of control; T/C (dose: 125.0 mg/kg/injection, schedule: Q01DX010 (ip), vehicle: saline): 90 % of control; T/C [2]: 91 % of control; T/C (dose: 250.0 mg/kg/injection, schedule: Q01DX010 (ip), vehicle: saline): 100 % of control; T/C [3]: 118 % of control and 95 % of control; T/C (dose: 500.0 mg/kg/injection, schedule: Q01DX010 (ip), vehicle: saline): 100 % of control; T/C [4]: 98 % of control and 104 % of control

**Q.** Which results are given for `N#[N+]c1cnc([O-])[nH]c1=O`?
**A.** T/C [5]: 115 % of control; T/C [6]: 160 % of control; T/C [7]: 160 % of control and 166 % of control

**Q.** `O=c1[nH]c(=O)n(C2CC(O)C(CO)O2)cc1I` (stereo unspecified) was tested. Which T/C [1] did it give?
**A.** 103 % of control

**Q.** And the T/C [2]?
**A.** 108 % of control

**Q.** What about the T/C [3] of the same compound?
**A.** 118 % of control and 92 % of control

**Q.** And the T/C [4]?
**A.** 114 % of control

**Q.** Which results are given for `N=C(N)c1ccc(Nc2ccc(C(=N)N)cc2)cc1`?
**A.** T/C (dose: 0.8 mg/kg/injection, schedule: Q01DX Z (ip), vehicle: methylcellulose (MC)): 95 % of control; T/C (dose: 1.6 mg/kg/injection, schedule: Q01DX Z (ip), vehicle: methylcellulose (MC)): 107 % of control; T/C (dose: 3.0 mg/kg/injection, schedule: Q01DX010 (ip), vehicle: saline): 111 % of control; T/C (dose: 3.1 mg/kg/injection, schedule: Q01DX Z (ip), vehicle: methylcellulose (MC)): 96 % of control and 103 % of control; T/C (dose: 6.0 mg/kg/injection, schedule: Q01DX010 (ip), vehicle: saline): 100 % of control; T/C (dose: 6.3 mg/kg/injection, schedule: Q01DX Z (ip), vehicle: methylcellulose (MC)): 99 % of control; T/C (dose: 12.0 mg/kg/injection, schedule: Q01DX010 (ip), vehicle: saline): 100 % of control; T/C (dose: 12.5 mg/kg/injection, schedule: Q01DX Z (ip), vehicle: methylcellulose (MC)): 98 % of control

**Q.** `Oc1cc(CN(CCCl)CCCl)c(O)cc1CN(CCCl)CCCl` was tested. Which T/C (dose: 0.06 mg/kg/injection, schedule: Q01DX Z (sc), vehicle: steriod suspending solution) did it give?
**A.** 101 % of control

**Q.** What about the T/C (dose: 0.12 mg/kg/injection, schedule: Q01DX Z (sc), vehicle: steriod suspending solution) of the same compound?
**A.** 109 % of control

**Q.** What about the T/C (dose: 0.24 mg/kg/injection, schedule: Q01DX Z (sc), vehicle: steriod suspending solution) of the same compound?
**A.** 114 % of control

**Q.** What about the T/C (dose: 0.49 mg/kg/injection, schedule: Q01DX Z (sc), vehicle: steriod suspending solution) of the same compound?
**A.** 172 % of control

**Q.** And the T/C (dose: 0.63 mg/kg/injection, schedule: Q01DX010 (ip), vehicle: saline)?
**A.** 110 % of control and 100 % of control

**Q.** And the T/C (dose: 0.99 mg/kg/injection, schedule: Q01DX Z (sc), vehicle: steriod suspending solution)?
**A.** 175 % of control

**Q.** What about the T/C [5] of the same compound?
**A.** 120 % of control and 104 % of control

**Q.** And the T/C (dose: 2.5 mg/kg/injection, schedule: Q01DX010 (ip), vehicle: saline)?
**A.** 122 % of control

**Q.** What about the T/C (dose: 3.75 mg/kg/injection, schedule: Q01DX Z (sc), vehicle: steriod suspending solution) of the same compound?
**A.** 104 % of control

**Q.** What about the T/C [6] of the same compound?
**A.** 115 % of control and 118 % of control

**Q.** What about the T/C (dose: 7.5 mg/kg/injection, schedule: Q01DX Z (sc), vehicle: steriod suspending solution) of the same compound?
**A.** 110 % of control and 101 % of control

**Q.** With `C[C@@H]1C[C@@H]([C@H](O)CC2CC(=O)NC(=O)C2)C(=O)[C@@H](C)C1` as the compound, how does the T/C (dose: 0.39 mg/kg/injection, schedule: Q01DX Z (ip), vehicle: water) read?
**A.** 89 % of control

**Q.** And the T/C (dose: 3.12 mg/kg/injection, schedule: Q01DX Z (ip), vehicle: water)?
**A.** 102 % of control

**Q.** And the T/C [6]?
**A.** 86 % of control and 100 % of control

**Q.** And the T/C [7]?
**A.** 110 % of control and 100 % of control

**Q.** And the T/C (dose: 20.0 mg/kg/injection, schedule: Q01DX010 (ip), vehicle: saline)?
**A.** 115 % of control and 100 % of control

**Q.** And the T/C (dose: 25.0 mg/kg/injection, schedule: Q01DX Z (ip), vehicle: water)?
**A.** 93 % of control

**Q.** And the T/C (dose: 40.0 mg/kg/injection, schedule: Q01DX010 (ip), vehicle: saline)?
**A.** 90 % of control

**Q.** Which results are given for `CSc1ncnc2nc[nH]c12`?
**A.** T/C (dose: 6.25 mg/kg/injection, schedule: Q01DX Z (ip), vehicle: carboxymethylcellulose (CMC)): 100 % of control; T/C (dose: 12.5 mg/kg/injection, schedule: Q01DX Z (ip), vehicle: carboxymethylcellulose (CMC)): 100 % of control; T/C (dose: 25.0 mg/kg/injection, schedule: Q01DX Z (ip), vehicle: carboxymethylcellulose (CMC)): 93 % of control; T/C (dose: 100.0 mg/kg/injection, schedule: Q01DX010 (ip), vehicle: saline): 115 % of control; T/C (dose: 200.0 mg/kg/injection, schedule: Q01DX010 (ip), vehicle: saline): 120 % of control; T/C (dose: 200.0 mg/kg/injection, schedule: Q01DX Z (ip), vehicle: carboxymethylcellulose (CMC)): 114 % of control
